Bridge positions count the residues as written; N and C are the ends. Peptide text beside a SMILES is read from it.
Tested on: human embryonic lung fibroblasts
Test: Growth promoting activity in human embryonic lung fibroblasts, cell counting in a counting chamber
Type: cell-based
Conditions: for Growth stimulation in %: per cent increase over basal value with 0.67% calf serum; for No. of cells × 10^6: 0.67% calf serum
Protocol: Tests of the growth promoting activity have been performed in human embryonic lung fibroblasts and the growth promoting activity is measured by cell counting in a counting chamber and expressed as per cent increase over a basal value obtained with using 0.67% calf serum.

C[C@@H](O)[C@H](NC(=O)[C@@H]1CSSC[C@H](NC(=O)[C@H](CO)NC(=O)[C@H](CCC(=O)O)NC(=O)[C@H](CCC(N)=O)NC(=O)[C@@H](N)CC(=O)O)C(=O)N[C@@H](CCCCN)C(=O)NCC(=O)N[C@@H](CCCNC(=N)N)C(=O)N1)C(=O)N[C@@H](CCC(=O)O)C(=O)NCC(=O)N[C@@H](Cc1ccccc1)C(=O)O [tridecapeptide (cyclic)] (H-DQESCKGRCTEGF-OH; disulfide 5-9)
Growth stimulation in % (1 μg per ml medium): 14% | No. of cells × 10^6 (1 μg tridecapeptide per ml medium): 2.35 × 10^6 | Growth stimulation in % (5 μg per ml medium): 66% | No. of cells × 10^6 (5 μg tridecapeptide per ml medium): 3.4 × 10^6 | Growth stimulation in % (10 μg per ml medium): 60% | No. of cells × 10^6 (10 μg tridecapeptide per ml medium): 3.3 × 10^6 | Growth stimulation in % (25 μg per ml medium): 51% | No. of cells × 10^6 (25 μg tridecapeptide per ml medium): 3.1 × 10^6 | Growth stimulation in % (50 μg per ml medium): 31% | No. of cells × 10^6 (50 μg tridecapeptide per ml medium): 2.7 × 10^6 | Effect on total number of cells produced (dosages higher than 10 μug. per ml. of medium): slight inhibitory effect | Effect on total number of cells produced (dosages of from 1 to 10 μug. of polypeptide per ml. of medium): dose related increase
